# Experimental data: PubChem BioAssay (NCI)
#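 Protocol summary: plate cells (96-well), add compound at 5 concentrations, incubate 48 h, interpolate endpoints linearly. The concentration for 50% growth inhibition is given as GI50. TGI marks complete inhibition of growth.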
# What was measured:
# Test in all cases: NCI tumour cell line growth inhibition, 48 h
# A498 renal = system: A498 renal
# SN12C renal = system: SN12C renal
# OVCAR-5 ovarian = system: OVCAR-5 ovarian
# ACHN renal = system: ACHN renal
# HOP-62 NSCLC = system: HOP-62 NSCLC
# OVCAR-4 ovarian = system: OVCAR-4 ovarian
# SK-MEL-28 melanoma = system: SK-MEL-28 melanoma
# DU-145 prostate = system: DU-145 prostate
# UACC-257 melanoma = system: UACC-257 melanoma
# UO-31 renal = system: UO-31 renal
# UACC-62 melanoma = system: UACC-62 melanoma
# MCF7 breast = system: MCF7 breast
# HT29 colon = system: HT29 colon
# K-562 leukemia = system: K-562 leukemia
# NCI-H522 lung = system: NCI-H522 lung
# T-47D breast = system: T-47D breast
# OVCAR-8 ovarian = system: OVCAR-8 ovarian
# M14 melanoma = system: M14 melanoma
# NCI-H226 lung = system: NCI-H226 lung
# SF-295 CNS = system: SF-295 CNS
# OVCAR-3 ovarian = system: OVCAR-3 ovarian
# HL-60(TB) leukemia = system: HL-60(TB) leukemia
# NCI/ADR-RES ovarian = system: NCI/ADR-RES ovarian
# EKVX NSCLC = system: EKVX NSCLC
# IGROV1 ovarian = system: IGROV1 ovarian
# MOLT-4 leukemia = system: MOLT-4 leukemia
# RPMI-8226 leukemia = system: RPMI-8226 leukemia
# MALME-3M melanoma = system: MALME-3M melanoma
# SK-MEL-2 melanoma = system: SK-MEL-2 melanoma
# SNB-75 CNS = system: SNB-75 CNS
# SK-OV-3 ovarian = system: SK-OV-3 ovarian
# SNB-19 CNS = system: SNB-19 CNS
# TK-10 renal = system: TK-10 renal
# COLO 205 colon = system: COLO 205 colon
# CAKI-1 renal = system: CAKI-1 renal
# SF-268 CNS = system: SF-268 CNS
# HS 578T breast = system: HS 578T breast
# HCT-116 colon = system: HCT-116 colon
# SK-MEL-5 melanoma = system: SK-MEL-5 melanoma
# BT-549 breast = system: BT-549 breast
# HCT-15 colon = system: HCT-15 colon
# MDA-MB-231 breast = system: MDA-MB-231 breast
# SW-620 colon = system: SW-620 colon
# MDA-MB-435 = system: MDA-MB-435
# 786-0 renal = system: 786-0 renal
# LOX IMVI melanoma = system: LOX IMVI melanoma
# A549 NSCLC = system: A549 NSCLC
# NCI-H23 lung = system: NCI-H23 lung
# SR leukemia = system: SR leukemia
# CCRF-CEM leukemia = system: CCRF-CEM leukemia
# NCI-H460 lung = system: NCI-H460 lung
# U251 CNS = system: U251 CNS
# PC-3 prostate = system: PC-3 prostate
# KM12 colon = system: KM12 colon
# SF-539 CNS = system: SF-539 CNS
smiles,measurement,setting,value
Cc1cc2c(cc1C)[n+](=O)c(C(=O)C(C)(C)C)c(C(F)(F)F)n2[O-],GI50,A498 renal,18.1 µM
same,TGI,A498 renal,44.1 µM
same,GI50,SN12C renal,14.1 µM
same,TGI,SN12C renal,62.7 µM
same,GI50,OVCAR-5 ovarian,8.51 µM
same,TGI,OVCAR-5 ovarian,54.2 µM
same,GI50,ACHN renal,16.1 µM
same,TGI,ACHN renal,34.5 µM
same,GI50,HOP-62 NSCLC,17 µM
same,TGI,HOP-62 NSCLC,59.1 µM
same,GI50,OVCAR-4 ovarian,26.7 µM
same,TGI,OVCAR-4 ovarian,> 100 µM
same,GI50,SK-MEL-28 melanoma,> 100 µM
same,TGI,SK-MEL-28 melanoma,> 100 µM
same,GI50,DU-145 prostate,5.45 µM
same,TGI,DU-145 prostate,19.5 µM
same,GI50,UACC-257 melanoma,7.71 µM
same,TGI,UACC-257 melanoma,41.2 µM
same,GI50,UO-31 renal,17.4 µM
same,TGI,UO-31 renal,33.2 µM
same,GI50,UACC-62 melanoma,17 µM
same,TGI,UACC-62 melanoma,71.5 µM
same,GI50,MCF7 breast,20.8 µM
same,TGI,MCF7 breast,77.7 µM
same,GI50,HT29 colon,31.7 µM
same,TGI,HT29 colon,> 100 µM
same,GI50,K-562 leukemia,4.3 µM
same,TGI,K-562 leukemia,19.9 µM
same,GI50,NCI-H522 lung,18.9 µM
same,TGI,NCI-H522 lung,49.6 µM
same,GI50,T-47D breast,32.3 µM
same,TGI,T-47D breast,> 100 µM
same,GI50,OVCAR-8 ovarian,3.62 µM
same,TGI,OVCAR-8 ovarian,15.5 µM
same,GI50,M14 melanoma,27.5 µM
same,TGI,M14 melanoma,80.8 µM
same,GI50,NCI-H226 lung,16.2 µM
same,TGI,NCI-H226 lung,70.6 µM
same,GI50,SF-295 CNS,28.8 µM
same,TGI,SF-295 CNS,85.4 µM
same,GI50,OVCAR-3 ovarian,21.2 µM
same,TGI,OVCAR-3 ovarian,50.1 µM
same,GI50,HL-60(TB) leukemia,5.9 µM
same,TGI,HL-60(TB) leukemia,24.5 µM
same,GI50,NCI/ADR-RES ovarian,9.08 µM
same,TGI,NCI/ADR-RES ovarian,27.5 µM
same,GI50,EKVX NSCLC,2910 nM
same,TGI,EKVX NSCLC,9.95 µM
same,GI50,IGROV1 ovarian,5.17 µM
same,TGI,IGROV1 ovarian,20.3 µM
same,GI50,MOLT-4 leukemia,8.2 µM
same,TGI,MOLT-4 leukemia,29.3 µM
same,GI50,RPMI-8226 leukemia,3.57 µM
same,TGI,RPMI-8226 leukemia,15.4 µM
same,GI50,MALME-3M melanoma,24.2 µM
same,TGI,MALME-3M melanoma,68.1 µM
same,GI50,SK-MEL-2 melanoma,25.6 µM
same,TGI,SK-MEL-2 melanoma,58.7 µM
same,GI50,SNB-75 CNS,45.9 µM
same,TGI,SNB-75 CNS,> 100 µM
same,GI50,SK-OV-3 ovarian,50 µM
same,TGI,SK-OV-3 ovarian,> 100 µM
same,GI50,SNB-19 CNS,56.2 µM
same,TGI,SNB-19 CNS,> 100 µM
same,GI50,TK-10 renal,75.4 µM
same,TGI,TK-10 renal,> 100 µM
same,GI50,COLO 205 colon,54.4 µM
same,TGI,COLO 205 colon,> 100 µM
same,GI50,CAKI-1 renal,21.3 µM
same,TGI,CAKI-1 renal,55 µM
same,GI50,SF-268 CNS,16.6 µM
same,TGI,SF-268 CNS,82.5 µM
same,GI50,HS 578T breast,14.4 µM
same,TGI,HS 578T breast,58.6 µM
same,GI50,HCT-116 colon,10.6 µM
same,TGI,HCT-116 colon,> 100 µM
same,GI50,SK-MEL-5 melanoma,12.5 µM
same,TGI,SK-MEL-5 melanoma,26.9 µM
same,GI50,BT-549 breast,12 µM
same,TGI,BT-549 breast,50.5 µM
same,GI50,HCT-15 colon,13.7 µM
same,TGI,HCT-15 colon,55.6 µM
same,GI50,MDA-MB-231 breast,13.6 µM
same,TGI,MDA-MB-231 breast,37.5 µM
same,GI50,SW-620 colon,28.4 µM
same,TGI,SW-620 colon,> 100 µM
same,GI50,MDA-MB-435,28.2 µM
same,TGI,MDA-MB-435,78.9 µM
same,GI50,786-0 renal,29.4 µM
same,TGI,786-0 renal,> 100 µM
same,GI50,LOX IMVI melanoma,9.53 µM
same,TGI,LOX IMVI melanoma,25.7 µM
same,GI50,A549 NSCLC,8.61 µM
same,TGI,A549 NSCLC,26.2 µM
same,GI50,NCI-H23 lung,16.1 µM
same,TGI,NCI-H23 lung,47.6 µM
same,GI50,SR leukemia,11.5 µM
same,TGI,SR leukemia,33.2 µM
same,GI50,CCRF-CEM leukemia,12.3 µM
same,TGI,CCRF-CEM leukemia,49.3 µM
same,GI50,NCI-H460 lung,13.7 µM
same,TGI,NCI-H460 lung,34 µM
same,GI50,U251 CNS,20.8 µM
same,TGI,U251 CNS,> 100 µM
same,GI50,PC-3 prostate,6.24 µM
same,TGI,PC-3 prostate,39.2 µM
same,GI50,KM12 colon,25 µM
same,TGI,KM12 colon,62.1 µM
same,GI50,SF-539 CNS,16.6 µM
same,TGI,SF-539 CNS,41.9 µM
